Assay results published in US9169310B2 (Zealand Pharma A/S, priority 2010, dated 2015).
Starred links: 1 amine or outer side, 2 acyl side, 3 side chain; linkers in the order of their positions; H or OH if unused. Non-standard residues stand in square brackets, D forms with d. Residues, ends and D or L forms follow the SMILES beside them. Groups on a side chain read outwards from the residue. *: point of attachment. Ala(pyrazol-1-yl) = N[C@@H](Cn1cccn1)C(=O)O; Ala(4-thiazolyl) = N[C@@H](Cc1cscn1)C(=O)O; γGlu = O=C(O)[C@H](CCC(=O)[*:2])N[*:1]; X1 = O=C([C@H](Cn1cncn1)N[*:1])[*:2]; Palmitoyl = CCCCCCCCCCCCCCCC(=O)*; Aib = CC(C)(N)C(=O)O

biological target: T1, human GLP-1R (Homo sapiens, UniProt P43220); assay: GLP-1 receptor efficacy assay (cAMP formation, FlashPlate cAMP kit); assay type: cell-based; settings: HEK293 cells expressing human GLP-1R; cAMP formed, 15 min at 37° C.
T1 construct: expressed in transfected cells
T1 sequence (P43220 24-463): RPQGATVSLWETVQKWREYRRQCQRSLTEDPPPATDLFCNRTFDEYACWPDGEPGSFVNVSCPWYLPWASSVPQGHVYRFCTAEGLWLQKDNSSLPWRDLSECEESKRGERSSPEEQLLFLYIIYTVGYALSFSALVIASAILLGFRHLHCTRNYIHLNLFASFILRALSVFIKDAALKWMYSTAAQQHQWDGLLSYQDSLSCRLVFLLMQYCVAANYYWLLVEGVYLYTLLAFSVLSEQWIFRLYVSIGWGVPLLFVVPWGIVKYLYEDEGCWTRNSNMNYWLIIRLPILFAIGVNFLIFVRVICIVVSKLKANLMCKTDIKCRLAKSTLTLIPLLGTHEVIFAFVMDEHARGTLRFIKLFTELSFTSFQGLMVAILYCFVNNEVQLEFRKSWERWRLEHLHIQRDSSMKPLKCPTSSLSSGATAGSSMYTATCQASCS
Description: (§1) The 5′-end primers additionally encoded a near Kozak consensus sequence to ensure efficient translation.
(§2) 48 hr after transfection, cells were seeded for limited dilution cloning and selected with 1 mg/ml G418 in the culture medium.

Question: How did the EC50 turn out when CCCCCCCCCCCCCCCC(=O)N[C@@H](CCC(=O)NCCCC[C@H](NC(=O)[C@H](CO)NC(=O)[C@H](CC(=O)O)NC(=O)[C@H](CC(C)C)NC(=O)[C@H](Cc1ccc(O)cc1)NC(=O)[C@H](CCCCN)NC(=O)[C@H](CO)NC(=O)[C@H](Cc1ccc(O)cc1)NC(=O)[C@H](CC(=O)O)NC(=O)[C@H](CO)NC(=O)[C@@H](NC(=O)[C@H](Cc1ccccc1)NC(=O)[C@@H](NC(=O)CNC(=O)[C@H](C)NC(=O)C(C)(C)NC(=O)[C@@H](N)Cc1c[nH]cn1)[C@@H](C)O)[C@@H](C)O)C(=O)N[C@@H](C)C(=O)N[C@@H](C)C(=O)N[C@@H](Cc1c[nH]cn1)C(=O)N[C@@H](CC(=O)O)C(=O)N[C@@H](Cc1ccccc1)C(=O)N[C@H](C(=O)N[C@@H](CCC(=O)O)C(=O)N[C@@H](Cc1c[nH]c2ccccc12)C(=O)N[C@@H](CC(C)C)C(=O)N[C@@H](CC(C)C)C(=O)N[C@@H](CO)C(=O)N[C@@H](C)C(N)=O)C(C)C)C(=O)O [Compound 17] (H-H[Aib]AGTFTSDYSKYLDSK([γGlu-Palmitoyl])AAHDFVEWLLSA-NH2) was run?
Answer: 0.09 nM

Question: CCCCCCCCCCCCCCCC(=O)N[C@@H](CCC(=O)NCCCC[C@H](NC(=O)[C@H](CO)NC(=O)[C@H](CC(=O)O)NC(=O)[C@H](CC(C)C)NC(=O)[C@H](Cc1ccc(O)cc1)NC(=O)[C@H](CCCCN)NC(=O)[C@H](CO)NC(=O)[C@H](Cc1ccc(O)cc1)NC(=O)[C@H](CC(=O)O)NC(=O)[C@H](CO)NC(=O)[C@@H](NC(=O)[C@H](Cc1ccccc1)NC(=O)[C@@H](NC(=O)CNC(=O)[C@H](Cc1c[nH]cn1)NC(=O)C(C)(C)NC(=O)[C@@H](N)Cc1c[nH]cn1)[C@@H](C)O)[C@@H](C)O)C(=O)N[C@@H](C)C(=O)N[C@@H](C)C(=O)N[C@@H](Cc1c[nH]cn1)C(=O)N[C@@H](CC(=O)O)C(=O)N[C@@H](Cc1ccccc1)C(=O)N[C@H](C(=O)N[C@@H](CCC(=O)O)C(=O)N[C@@H](Cc1c[nH]c2ccccc12)C(=O)N[C@@H](CC(C)C)C(=O)N[C@@H](CC(C)C)C(=O)N[C@@H](CO)C(=O)N[C@@H](C)C(N)=O)C(C)C)C(=O)O [Compound 1] (H-H[Aib]HGTFTSDYSKYLDSK([γGlu-Palmitoyl])AAHDFVEWLLSA-NH2) was tested. Which EC50 did it give?
Answer: 0.21 nM

Question: Which EC50 does the source give for CCCCCCCCCCCCCCCC(=O)N[C@@H](CCC(=O)NCCCC[C@H](NC(=O)[C@H](CO)NC(=O)[C@H](CC(=O)O)NC(=O)[C@H](CC(C)C)NC(=O)[C@H](Cc1ccc(O)cc1)NC(=O)[C@H](CCCCN)NC(=O)[C@H](CO)NC(=O)[C@H](Cc1ccc(O)cc1)NC(=O)[C@H](CC(=O)O)NC(=O)[C@H](CO)NC(=O)[C@@H](NC(=O)[C@H](Cc1ccccc1)NC(=O)[C@@H](NC(=O)CNC(=O)[C@H](Cn1cncn1)NC(=O)C(C)(C)NC(=O)[C@@H](N)Cc1c[nH]cn1)[C@@H](C)O)[C@@H](C)O)C(=O)N[C@@H](C)C(=O)N[C@@H](C)C(=O)N[C@@H](Cc1c[nH]cn1)C(=O)N[C@@H](CC(=O)O)C(=O)N[C@@H](Cc1ccccc1)C(=O)N[C@H](C(=O)N[C@@H](CCC(=O)O)C(=O)N[C@@H](Cc1c[nH]c2ccccc12)C(=O)N[C@@H](CC(C)C)C(=O)N[C@@H](CC(C)C)C(=O)N[C@@H](CO)C(=O)N[C@@H](C)C(N)=O)C(C)C)C(=O)O [Compound 25] (H-H[Aib][X1]GTFTSDYSKYLDSK([γGlu-Palmitoyl])AAHDFVEWLLSA-NH2) here?
Answer: 0.09 nM

Question: CCCCCCCCCCCCCCCC(=O)N[C@@H](CCC(=O)NCCCC[C@H](NC(=O)[C@H](CO)NC(=O)[C@H](CC(=O)O)NC(=O)[C@H](CC(C)C)NC(=O)[C@H](Cc1ccc(O)cc1)NC(=O)[C@H](CCCCN)NC(=O)[C@H](CO)NC(=O)[C@H](Cc1ccc(O)cc1)NC(=O)[C@H](CC(=O)O)NC(=O)[C@H](CO)NC(=O)[C@@H](NC(=O)[C@H](Cc1ccccc1)NC(=O)[C@@H](NC(=O)CNC(=O)[C@H](Cn1cccn1)NC(=O)C(C)(C)NC(=O)[C@@H](N)Cc1c[nH]cn1)[C@@H](C)O)[C@@H](C)O)C(=O)N[C@@H](C)C(=O)N[C@@H](C)C(=O)N[C@@H](Cc1c[nH]cn1)C(=O)N[C@@H](CC(=O)O)C(=O)N[C@@H](Cc1ccccc1)C(=O)N[C@H](C(=O)N[C@@H](CCC(=O)O)C(=O)N[C@@H](Cc1c[nH]c2ccccc12)C(=O)N[C@@H](CC(C)C)C(=O)N[C@@H](CC(C)C)C(=O)N[C@@H](CO)C(=O)N[C@@H](C)C(N)=O)C(C)C)C(=O)O [Compound 28] (H-H[Aib][Ala(pyrazol-1-yl)]GTFTSDYSKYLDSK([γGlu-Palmitoyl])AAHDFVEWLLSA-NH2) was tested. Which EC50 did it give?
Answer: 0.11 nM

Question: Which EC50 does the source give for CCCCCCCCCCCCCCCC(=O)N[C@@H](CCC(=O)NCCCC[C@H](NC(=O)[C@H](CO)NC(=O)[C@H](CC(=O)O)NC(=O)[C@H](CC(C)C)NC(=O)[C@H](Cc1ccc(O)cc1)NC(=O)[C@H](CCCCN)NC(=O)[C@H](CO)NC(=O)[C@H](Cc1ccc(O)cc1)NC(=O)[C@H](CC(=O)O)NC(=O)[C@H](CO)NC(=O)[C@@H](NC(=O)[C@H](Cc1ccccc1)NC(=O)[C@@H](NC(=O)CNC(=O)[C@H](Cc1cscn1)NC(=O)C(C)(C)NC(=O)[C@@H](N)Cc1c[nH]cn1)[C@@H](C)O)[C@@H](C)O)C(=O)N[C@@H](C)C(=O)N[C@@H](C)C(=O)N[C@@H](Cc1c[nH]cn1)C(=O)N[C@@H](CC(=O)O)C(=O)N[C@@H](Cc1ccccc1)C(=O)N[C@H](C(=O)N[C@@H](CCC(=O)O)C(=O)N[C@@H](Cc1c[nH]c2ccccc12)C(=O)N[C@@H](CC(C)C)C(=O)N[C@@H](CC(C)C)C(=O)N[C@@H](CO)C(=O)N[C@@H](C)C(N)=O)C(C)C)C(=O)O [Compound 23] (H-H[Aib][Ala(4-thiazolyl)]GTFTSDYSKYLDSK([γGlu-Palmitoyl])AAHDFVEWLLSA-NH2) here?
Answer: 0.11 nM

Question: How did the EC50 turn out when CCCCCCCCCCCCCCCC(=O)N[C@@H](CCC(=O)NCCCC[C@H](NC(=O)[C@H](CO)NC(=O)[C@H](CC(=O)O)NC(=O)[C@H](CC(C)C)NC(=O)[C@H](Cc1ccc(O)cc1)NC(=O)[C@H](CCCCN)NC(=O)[C@H](CO)NC(=O)[C@H](Cc1ccc(O)cc1)NC(=O)[C@H](CC(=O)O)NC(=O)[C@H](CO)NC(=O)[C@@H](NC(=O)[C@H](Cc1ccccc1)NC(=O)[C@@H](NC(=O)CNC(=O)[C@H](CO)NC(=O)C(C)(C)NC(=O)[C@@H](N)Cc1c[nH]cn1)[C@@H](C)O)[C@@H](C)O)C(=O)N[C@@H](C)C(=O)N[C@@H](C)C(=O)N[C@@H](Cc1c[nH]cn1)C(=O)N[C@@H](CC(=O)O)C(=O)N[C@@H](Cc1ccccc1)C(=O)N[C@H](C(=O)N[C@@H](CCC(=O)O)C(=O)N[C@@H](Cc1c[nH]c2ccccc12)C(=O)N[C@@H](CC(C)C)C(=O)N[C@@H](CC(C)C)C(=O)N[C@@H](CO)C(=O)N[C@@H](C)C(N)=O)C(C)C)C(=O)O [Compound 18] (H-H[Aib]SGTFTSDYSKYLDSK([γGlu-Palmitoyl])AAHDFVEWLLSA-NH2) was run?
Answer: 0.09 nM

biological target: T2, human glucagon-R (Homo sapiens, UniProt P47871); assay: Glucagon receptor efficacy assay (cAMP formation, FlashPlate cAMP kit); assay type: cell-based; settings: HEK293 cells expressing human glucagon-R; cAMP formed, 15 min at 37° C.; read-out: EC50 nM) GluR
T2 construct: expressed in transfected cells
T2 sequence (P47871 26-477): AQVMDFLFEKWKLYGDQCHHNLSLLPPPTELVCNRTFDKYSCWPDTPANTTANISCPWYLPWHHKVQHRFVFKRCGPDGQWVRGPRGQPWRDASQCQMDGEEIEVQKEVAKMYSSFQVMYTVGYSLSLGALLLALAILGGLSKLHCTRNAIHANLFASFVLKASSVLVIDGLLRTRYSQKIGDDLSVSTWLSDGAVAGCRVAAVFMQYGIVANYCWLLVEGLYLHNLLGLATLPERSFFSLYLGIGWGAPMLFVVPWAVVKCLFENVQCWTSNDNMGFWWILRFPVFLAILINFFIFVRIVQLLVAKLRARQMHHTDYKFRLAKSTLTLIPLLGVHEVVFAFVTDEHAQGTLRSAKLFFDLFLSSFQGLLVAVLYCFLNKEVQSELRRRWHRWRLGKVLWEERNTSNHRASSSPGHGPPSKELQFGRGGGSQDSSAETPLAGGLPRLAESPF
Description: as §1, §2

Question: How did the EC50 turn out when CCCCCCCCCCCCCCCC(=O)N[C@@H](CCC(=O)NCCCC[C@H](NC(=O)[C@H](CO)NC(=O)[C@H](CC(=O)O)NC(=O)[C@H](CC(C)C)NC(=O)[C@H](Cc1ccc(O)cc1)NC(=O)[C@H](CCCCN)NC(=O)[C@H](CO)NC(=O)[C@H](Cc1ccc(O)cc1)NC(=O)[C@H](CC(=O)O)NC(=O)[C@H](CO)NC(=O)[C@@H](NC(=O)[C@H](Cc1ccccc1)NC(=O)[C@@H](NC(=O)CNC(=O)[C@@H](NC(=O)C(C)(C)NC(=O)[C@@H](N)Cc1c[nH]cn1)C(C)C)[C@@H](C)O)[C@@H](C)O)C(=O)N[C@@H](C)C(=O)N[C@@H](C)C(=O)N[C@@H](Cc1c[nH]cn1)C(=O)N[C@@H](CC(=O)O)C(=O)N[C@@H](Cc1ccccc1)C(=O)N[C@H](C(=O)N[C@@H](CCC(=O)O)C(=O)N[C@@H](Cc1c[nH]c2ccccc12)C(=O)N[C@@H](CC(C)C)C(=O)N[C@@H](CC(C)C)C(=O)N[C@@H](CO)C(=O)N[C@@H](C)C(N)=O)C(C)C)C(=O)O [Compound 16] (H-H[Aib]VGTFTSDYSKYLDSK([γGlu-Palmitoyl])AAHDFVEWLLSA-NH2) was run?
Answer: 3 nM

Question: How did the EC50 turn out when CCCCCCCCCCCCCCCC(=O)N[C@@H](CCC(=O)NCCCC[C@H](NC(=O)[C@H](CO)NC(=O)[C@H](CC(=O)O)NC(=O)[C@H](CC(C)C)NC(=O)[C@H](Cc1ccc(O)cc1)NC(=O)[C@H](CCCCN)NC(=O)[C@H](CO)NC(=O)[C@H](Cc1ccc(O)cc1)NC(=O)[C@H](CC(=O)O)NC(=O)[C@H](CO)NC(=O)[C@@H](NC(=O)[C@H](Cc1ccccc1)NC(=O)[C@@H](NC(=O)[C@H](C)NC(=O)[C@H](CCC(N)=O)NC(=O)C(C)(C)NC(=O)[C@@H](N)Cc1c[nH]cn1)[C@@H](C)O)[C@@H](C)O)C(=O)N[C@@H](C)C(=O)N[C@@H](C)C(=O)N[C@@H](Cc1c[nH]cn1)C(=O)N[C@@H](CC(=O)O)C(=O)N[C@@H](Cc1ccccc1)C(=O)N[C@H](C(=O)N[C@@H](CCC(=O)O)C(=O)N[C@@H](Cc1c[nH]c2ccccc12)C(=O)N[C@@H](CC(C)C)C(=O)N[C@@H](CC(C)C)C(=O)N[C@@H](CO)C(=O)N[C@@H](C)C(N)=O)C(C)C)C(=O)O [Compound 8] (H-H[Aib]QATFTSDYSKYLDSK([γGlu-Palmitoyl])AAHDFVEWLLSA-NH2) was run?
Answer: 3 nM

Question: For CCCCCCCCCCCCCCCC(=O)N[C@@H](CCC(=O)NCCCC[C@H](NC(=O)[C@H](CO)NC(=O)[C@H](CC(=O)O)NC(=O)[C@H](CC(C)C)NC(=O)[C@H](Cc1ccc(O)cc1)NC(=O)[C@H](CCCCN)NC(=O)[C@H](CO)NC(=O)[C@H](Cc1ccc(O)cc1)NC(=O)[C@H](CC(=O)O)NC(=O)[C@H](CO)NC(=O)[C@@H](NC(=O)[C@H](Cc1ccccc1)NC(=O)[C@@H](NC(=O)CNC(=O)[C@H](CCC(=O)O)NC(=O)C(C)(C)NC(=O)[C@@H](N)Cc1c[nH]cn1)[C@@H](C)O)[C@@H](C)O)C(=O)N[C@@H](C)C(=O)N[C@@H](C)C(=O)N[C@@H](Cc1c[nH]cn1)C(=O)N[C@@H](CC(=O)O)C(=O)N[C@@H](Cc1ccccc1)C(=O)N[C@H](C(=O)N[C@@H](CCC(=O)O)C(=O)N[C@@H](Cc1c[nH]c2ccccc12)C(=O)N[C@@H](CC(C)C)C(=O)N[C@@H](CC(C)C)C(=O)N[C@@H](CO)C(=O)N[C@@H](C)C(N)=O)C(C)C)C(=O)O [Compound 7] (H-H[Aib]EGTFTSDYSKYLDSK([γGlu-Palmitoyl])AAHDFVEWLLSA-NH2), which EC50 is on record?
Answer: 26 nM
